In patent publication US20240300941A1, “HPK1 INHIBITORS, PREPARATION METHOD AND APPLICATION THEREOF” (ZHUHAI YUFAN BIOTECHNOLOGIES CO., LTD., priority 2018, published 2024):

How the values were obtained:
HPK1 = HPK1 (Homo sapiens (Human), UniProt Q92918); test: HPK1 ADP-Glo enzyme assay; assay type: biochemical; conditions: HPK1 protein 5 nM, MBP and ATP substrate, ADP-Glo readout
Method: The buffer used in the enzyme assay contains 5 mM MOPS (pH=7.2), 2.5 mM β-Glycerol Phosphate, 0.4 mM EDTA, 1 mM EGTA, 0.05 mM DTT, 5 mM MgCl2. The compound was dissolved in 100% DMSO at the concentration was 10 mM. The initial concentration of the test was 5 uM, and ten data points were diluted by three-fold gradient, and each point was repeatedly measured twice. The HPK1 protein was purchased from Thermo (Cat. No. PV6355) and diluted to 2× stock solution at the concentration of 10 nM (the final concentration of the enzyme assay was 5 nM). 2.5 µl of 2×HPK1 protein was added to each well of the plate containing the test compound, centrifuged at 1000 rpm for 30 seconds, and then incubated at 25° C. for 15 minutes. MBP protein was purchased from Millipore (Cat. No. 13-110) and ATP was purchased from Sigma (Cat. No. A7699-5G) and the two were formulated into 2× working solutions at concentrations of 4 uM and 80 uM. Added 2.5 μl mixture of 2×MBP and ATP, centrifuged at 1000 rpm for 30 seconds, then incubated at 25° C. for 90 minutes. Then added 5 ul of ADP-Glo™ (Promega, Cat. No. V9102) to the assay plate and incubated […] at 25° C. for 60 minutes. Finally, 10 ul of the kinase assay reagent (Promega, Cat. No. V9102) was added to the assay plate, centrifuged at 1000 rpm for 30 seconds at 25° C. for 60 minutes, and the […] intensity was determined.

[1] = system: pSLP-76(Ser376) in Jurkat E6-1 cells; test: Jurkat E6-1 pSLP-76(Ser376) HTRF experiment; assay type: cell-based; conditions: 4 hours compound incubation, anti-human CD3 antibody 20 minutes, Phospho-SLP-76 / SLP-76 HTRF
Method: Jurkat E6-1 cells were purchased from ATCC (Cat. No. TIB-152TM) and cultured overnight with RPMI 1640 containing 0.5% o FBS, after that 20 μL (10^7 cells/mL) cells were added to the experimental plates. Then the test compounds were diluted by three-fold gradient, and 10 different concentrations were prepared, and 5 μl of each was added to the experimental plate, and incubated for 4 hours in 37° C. incubator containing 5% CO2. Then 5 ul of 6× anti-human CD3 antibody (Biolegend, Cat. No. 300432) was added and incubated for 20 minutes in 37° C. incubator containing 5% CO2. Finally, the Phospho-SLP-76 and SLP-76 results were determined using the Cisbio Phospho-SLP-76 and SLP-76 HTRF assay kits (items: 63ADK076PEH and 63ADK077PEH, respectively). Based on the results, the IC50 of the compound is calculated.

HPK1, sequence (Q92918 whole entry): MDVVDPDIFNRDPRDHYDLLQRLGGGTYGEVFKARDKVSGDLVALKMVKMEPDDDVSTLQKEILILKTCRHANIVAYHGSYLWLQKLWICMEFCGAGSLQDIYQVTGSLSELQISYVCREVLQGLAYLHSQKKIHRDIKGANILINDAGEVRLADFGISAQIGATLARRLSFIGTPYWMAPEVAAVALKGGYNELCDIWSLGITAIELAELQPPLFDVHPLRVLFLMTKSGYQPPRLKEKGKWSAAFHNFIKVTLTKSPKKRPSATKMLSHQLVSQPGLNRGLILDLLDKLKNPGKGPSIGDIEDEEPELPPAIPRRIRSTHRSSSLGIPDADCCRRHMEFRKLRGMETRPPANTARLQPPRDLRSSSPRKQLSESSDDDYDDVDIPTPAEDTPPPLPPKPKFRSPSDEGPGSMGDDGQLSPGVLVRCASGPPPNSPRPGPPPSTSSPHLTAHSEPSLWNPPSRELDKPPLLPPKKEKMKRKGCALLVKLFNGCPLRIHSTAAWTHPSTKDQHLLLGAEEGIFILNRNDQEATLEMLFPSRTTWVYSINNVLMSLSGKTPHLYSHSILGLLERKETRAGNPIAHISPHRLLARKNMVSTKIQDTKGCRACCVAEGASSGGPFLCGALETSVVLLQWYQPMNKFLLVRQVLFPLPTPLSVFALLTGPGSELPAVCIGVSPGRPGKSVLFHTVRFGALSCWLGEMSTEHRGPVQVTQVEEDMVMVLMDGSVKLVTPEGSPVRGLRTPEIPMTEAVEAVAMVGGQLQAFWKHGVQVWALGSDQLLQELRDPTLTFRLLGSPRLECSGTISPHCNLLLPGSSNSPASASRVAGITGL

SMILES | IC50 (HPK1) [µM] | IC50 [1] [µM]
CN1CCN(c2ncc(-c3cnc(N)c(OCc4ccncc4)c3)s2)CC1 [A12] |  | < 1
Cc1nc(C2CCN(C)CC2)sc1-c1cnc(N)c(OCc2ccncc2)n1 [A15] | 0.1 to 1 | 
CSc1ncc(-c2cnc(N)c(OCc3cccc(C#CC(C)(C)O)c3)c2)s1 [A17] | < 0.1 | 1 to 50
CC(C)(O)C#Cc1cccc(COc2cc(-c3cnc(Oc4ccccc4)s3)cnc2N)c1 [A18] | 0.1 to 1 | 
CCC(C)c1ncc(-c2cnc(N)c(OCc3cccc(C#CC(C)(C)O)c3)c2)s1 (centres unmarked) [A20] | < 0.1 | 1 to 50
CC(C)c1ncc(-c2cnc(N)c(OCc3cc(C#CC(C)(C)O)ccc3F)c2)s1 [A21] | < 0.1 | < 1
CC1CN(c2ncc(-c3cnc(N)c(OCc4cccc(C#CC(C)(C)O)c4)c3)s2)CCN1C (centres unmarked) [A22] | < 0.1 | < 1
CC(C)(O)C#Cc1cccc(COc2cc(-c3cnc(C4CCOCC4)s3)cnc2N)c1 [A23] | < 0.1 | < 1
CN1CCCN(c2ncc(-c3cnc(N)c(OCc4cccc(C#CC(C)(C)O)c4)c3)s2)CC1 [A24] | < 0.1 | < 1
CN1CCN(c2ncc(-c3cnc(N)c(OCc4cccc(C#CC(C)(C)O)c4)c3)s2)CC1 [A25] | < 0.1 | < 1
CC1CN(c2ncc(-c3cnc(N)c(OCc4cccc(C#CC(C)(C)O)c4)c3)s2)CC(C)N1C (centres unmarked) [A26] | < 0.1 | < 1
CC(C)(O)C#Cc1cccc(COc2cc(-c3cnc(C4CCN(CC(F)(F)F)CC4)s3)cnc2N)c1 [A27] | < 0.1 | 1 to 50
CC(C)(O)C#Cc1cccc(COc2cc(-c3cnc(N4CCCCC4)s3)cnc2N)c1 [A29] | 0.1 to 1 | 
CC(C)(O)C#Cc1cccc(COc2cc(-c3cnc(C4CCCCC4)s3)cnc2N)c1 [A30] | 0.1 to 1 | 
CC(C)(O)C#Cc1ccc(F)c(COc2cc(-c3cnc(C4CCNCC4)s3)cnc2N)c1 [A31] | < 0.1 | < 1
CN1CCC(n2cc(-c3cnc(N)c(OCc4cccc(C#CC(C)(C)O)c4)c3)cn2)CC1 [A32] | < 0.1 | < 1
Cc1ncc(-c2cnc(N)c(OCc3ccncc3)c2)s1 [A35] | 0.1 to 1 | 1 to 50
CC(C)c1ncc(-c2cnc(N)c(OCc3ccncc3)c2)s1 [A36] |  | 1 to 50
C#Cc1cc(COc2cc(-c3cnc(C4CCN(C)CC4)s3)cnc2N)ccn1 [A39] | < 0.1 | < 1
CC(C)c1ncc(-c2cnc(N)c(OCc3cccc(C#CC(C)(C)O)c3)c2)s1 [A41] |  | 1 to 50
CC(C)(O)C#Cc1cccc(COc2cc(-c3cnc(C4CCNCC4)s3)cnc2N)c1 [A42] |  | < 1
CC(C)c1ncc(-c2cnc(N)c(OCc3cncc(C#CC(C)(C)O)c3)c2)s1 [A45] | 0.1 to 1 | 1 to 50
Nc1ncc(-c2cnc(C3CCOCC3)s2)cc1OCc1cc(C#CC2(O)CC2)ccc1F [A46] | < 0.1 | < 1

SMILES | IC50 (HPK1) [µM] | IC50 [1] [µM]
Nc1ncc(-c2cnn(C3CCOCC3)c2)cc1OCc1cccc(C#CC2(O)CC2)c1 [A47] | < 0.1 | < 1
CC(C)(O)C#Cc1cccc(COc2cc(-c3cnc(C4CCCCN4)s3)cnc2N)c1 (centres unmarked) [A49] | < 0.1 | < 1
Nc1ncc(-c2cnc(C3CCOCC3)s2)cc1OCc1cccc(C#CC2(O)CC2)c1 [A50] | < 0.1 | < 1
Nc1ncc(-c2cnn(C3CCOCC3)c2)cc1OCc1cc(C#CC2(O)CC2)ccc1F [A51] | < 0.1 | < 1
Nc1ncc(-c2cnc(C3CCNCC3)s2)cc1OCc1cccc(C#CC2(O)CC2)c1 [A52] | < 0.1 | < 1
Nc1ncc(-c2cnc(C3CCNCC3)s2)cc1OCc1cc(C#CC2(O)CC2)ccc1F [A53] | < 0.1 | < 1
Nc1ncc(-c2cnn(C3CCNCC3)c2)cc1OCc1cccc(C#CC2(O)CC2)c1 [A54] | < 0.1 | < 1
CC(C)(O)C#Cc1cccc(COc2cc(-c3cnc(C4CCCNC4)s3)cnc2N)c1 (centres unmarked) [A56] | < 0.1 | < 1
CN1CCC(c2ccnc(-c3cnc(N)c(OCc4cccc(C#CC(C)(C)O)c4)c3)c2)CC1 [A58] | 0.1 to 1 | 
CC(C)c1ncc(-c2cnc(N)c(OCc3cc(C#CC(C)(C)O)ccc3CN)c2)s1 [A67] | < 0.1 | 
CN1CCN(C2CCN(c3ncc(-c4cnc(N)c(OCc5cccc(C#CC(C)(C)O)c5)c4)s3)CC2)CC1 [A69] | < 0.1 | 
CC(C)c1ncc(-c2cnc(N)c(OCc3cc(C#CC(C)(C)O)cc(CN)c3)c2)s1 [A70] | < 0.1 | 
CN1CCC(c2ncc(-c3cnc(N)c(OCc4cccc(C#CC(C)(C)O)c4)c3)s2)C1 (centres unmarked) [A72] | < 0.1 | 
CN1CCC(n2cc(-c3cnc(N)c(OCc4cc(C#CC(C)(C)O)ccc4F)c3)cn2)CC1 [A73] | < 0.1 | 
CN1CCC(n2cc(-c3cnc(N)c(OCc4cccc(C#CC(C)(O)CF)c4)c3)cn2)CC1 (centres unmarked) [A74] | < 0.1 | 
CN1CCC(c2ncc(-c3cnc(N)c(OCc4cc(C#CC(C)(C)O)ccc4C(F)(F)F)c3)s2)CC1 [A76] | < 0.1 | 
CC(C)(O)C#Cc1cccc(COc2cc(-c3cnn(C4CCNCC4)c3)cnc2N)c1 [A79] | < 0.1 | 
CC(C)(O)C#Cc1cccc(COc2cc(-c3cnn(C4CCOCC4)c3)cnc2N)c1 [A80] | < 0.1 | 
CC(C)(O)C#Cc1cc(CN)cc(COc2cc(-c3cnc(C4CCOCC4)s3)cnc2N)c1 [A81] | < 0.1 | 
CN1CCC(c2ncc(-c3cnc(N)c(OCc4cc(C#CC(C)(C)O)cc(CN)c4)c3)s2)CC1 [A83] | < 0.1 | 
CC(C)(O)C#Cc1ccc(CN)c(COc2cc(-c3cnc(C4CCOCC4)s3)cnc2N)c1 [A84] | < 0.1 | 
Nc1ncc(-c2cccc(N3CCOCC3=O)c2)cc1OCc1ccncc1 [A85] | > 1 | 

The next lines start with the values.

IC50 (HPK1) [µM] | IC50 [1] [µM] | SMILES
< 0.1 | < 1 | CN1CCC(c2ncc(-c3cnc(N)c(OCc4ccncc4)c3)s2)CC1 [A1]
0.1 to 1 | 1 to 50 | CN1CCC(c2ncc(-c3cnc(N)c(OCc4ccccc4)c3)s2)CC1 [A2]
 | < 1 | CN1CCC(c2ncc(-c3cnc(N)c(OCc4cccc(C#CC(C)(C)O)c4)c3)s2)CC1 [A3]
0.1 to 1 | 1 to 50 | CC(Oc1cc(-c2cnc(C3CCN(C)CC3)s2)cnc1N)c1ccncc1 (centres unmarked) [A4]
0.1 to 1 | 1 to 50 | CN1CCC(c2ncc(-c3cnc(N)c(OCc4ccc(F)cc4)c3)s2)CC1 [A5]
 | < 1 | Nc1ncc(-c2cnc(C3CCNCC3)s2)cc1OCc1ccncc1 [A7]
 | 1 to 50 | CN1CCC(c2ncc(-c3cnc(N)c(OCc4ccnc(Cl)c4)c3)s2)CC1 [A8]
 | < 1 | CN1CCC(c2ncc(-c3cnc(N)c(OCc4ccnc(C#CC(C)(C)O)c4)c3)s2)CC1 [A10]
0.1 to 1 | 1 to 50 | CN1CCC(c2ncc(-c3cnc(N)c(OCc4ccnc(C#N)c4)c3)s2)CC1 [A11]
 | < 1 | Nc1ncc(-c2cnc(C3CCOCC3)s2)cc1OCc1ccncc1 [A13]
< 0.1 | < 1 | CN1CCC(c2ncc(-c3cnc(N)c(OCc4cc(C#CC(C)(C)O)ccc4F)c3)s2)CC1 [A19]
> 1 |  | CN1CCC(c2ncc(-c3cnc(N)c(OCc4cccc(C#CC(C)(O)C(F)(F)F)c4)c3)s2)CC1 (centres unmarked) [A33]
 | < 1 | CN1CCC(c2ncc(-c3cnc(N)c(OCc4cccc(C#CC5(O)CCCC5)c4)c3)s2)CC1 [A34]
 | < 1 | Nc1ncc(-c2cnc(C3CCCCC3)s2)cc1OCc1ccncc1 [A37]
 | < 1 | CN1CCC(c2ncc(-c3cnc(N)c(OCc4cccc(C#CC5(O)CCC5)c4)c3)s2)CC1 [A40]
0.1 to 1 | 1 to 50 | CN1CCC(c2ccc(-c3cnc(N)c(OCc4ccncc4)c3)nc2)CC1 [A43]
< 0.1 | 1 to 50 | CN1CCC(c2ncc(-c3cnc(N)c(OCc4cncc(C#CC(C)(C)O)c4)c3)s2)CC1 [A44]
< 0.1 | < 1 | CN1CCC(c2ncc(-c3cnc(N)c(OCc4cc(C#CC5(O)CC5)ccc4F)c3)s2)CC1 [A48]
< 0.1 | < 1 | CN1CCC(c2ncc(-c3cnc(N)c(OCc4cc(C#CC(C)(C)O)ccc4Cl)c3)s2)CC1 [A55]
< 0.1 | < 1 | CN1CCC(c2ncc(-c3cnc(N)c(OCc4cc(F)cc(C#CC(C)(C)O)c4)c3)s2)CC1 [A57]
0.1 to 1 |  | CN1CCC(c2ncc(-c3cnc(N)c(OCc4cccc(C#CC5(O)CCCCC5=O)c4)c3)s2)CC1 (centres unmarked) [A61]
< 0.1 |  | CN1CCC(c2ncc(-c3cnc(N)c(OCc4ccc(F)c(C#CC(C)(C)O)c4)c3)s2)CC1 [A75]
